Two substances from patent US9388215B2, “Compositions and methods of using islet neogenesis peptides and analogs thereof” (SHENZHEN HIGHTIDE BIOPHARMACEUTICAL, LTD., priority 2013, dated 2016) can be followed below.

Assay type in all cases: in vivo, mouse
Data set [1] relates to normal C57BL/6J mice. Briefly: Induction of small β-cell clusters in normal C57BL/6J mice (islet size distribution). The procedure:
After a 1-week acclimation, C57BL/6J female mice were randomly divided into 4 groups. The two control groups received either 10 mL/kg sterile normal saline (n=4) or scrambled peptide (Peptide 3, 25 mg/kg) (n=5) via subcutaneous injection for 10 days. The other two groups received INGAP-PP (Peptide 1) or INGAP-PP analog Peptide 7 at a dose of 25 mg/kg per day respectively (n=7 per group) for the same period. Body weight and 6 hour fasting blood glucose were measured before treatment and after the last dosing of treatment. Plasma and pancreatic insulin were also measured at the end of the study. On day 11, the pancreas was removed from each animal, cleared of fat and lymph nodes, weighed, and fixed in 10% neutral buffered formalin (NBF) for no longer than 24 hours before processing for morphometric analysis.
Immunohistochemistry analysis was used to determine pancreatic islet size distribution.

In data set [2] the test system is STZ induced diabetic mice. Briefly: Efficacy in streptozotocin (STZ) induced diabetic mice model. Conditions: 5 mg/kg or 25 mg/kg for 20 days. The method, then: After acclimatization in the animal facility for one week, 6-8 weeks old C57BL/6J mice were administered low dose STZ at 40 mg/kg in citrate buffer for 5 consecutive days to establish a T1D animal model. Mice with blood glucose greater than 16.7 mmol/L at 5 days post last STZ injection were included in the study. These mice were then treated with INGAP-PP (Peptide 1) or Peptide 7 at the doses of 5 mg/kg (2.5 mg/kg, bid (twice a day)) or 25 mg/kg (12.5 mg/kg, bid) for 20 days before sacrifices. Two additional groups of diabetic mice were administered either saline or a peptide (Peptide 3) composed of a scrambled sequence of amino acids from Peptide 1 as control groups. Blood glucose and insulin levels were measured, and 20 days post the last dosing of test agents, an oral glucose tolerance test (OGTT) was performed in 6 hour fasted animals to determine the effect of Peptide 1 and Peptide 7. Blood samples obtained from the tail cut for glucose determination were detected with an ACCU-CHEK™ glucometer (Roche, ACCU-CHEK® Active), and insulin levels were determined with Rat/Mouse Insulin Elisa kit (Millipore, Billerica, Mass. USA). For the OGTT, after the measurement of the basal glucose concentration (T=−30 min), mice received an oral glucose challenge at 2 g/kg and glucose values were determined by glucometer at 0, 15, 30, 60, 90 and 120 min.

For data set [3], the system named is normal C57BL/6J mice. Briefly: Induction of extra islet insulin positive β cell clusters (EIC) in normal C57BL/6J mice. The procedure:
After a 1-week acclimation, female C57BL/6J mice were randomly divided into 6 groups (n=5 per group). The control group received 10 mL/kg sterile normal saline via subcutaneous injection for 10 consecutive days. The other five groups received INGAP-PP (Peptide 1) or INGAP-PP analogs Peptide 12, Peptide 16, Peptide 29 or Peptide 31 at a dose of 50 mg/kg or 5 mg/kg per day, respectively, for the same period. On day 11, the pancreas was removed from each animal, cleared of fat and lymph nodes, weighed, and fixed in 10% neutral buffered formalin (NBF) for no longer than 24 hours before processing for morphometric analysis.
Immunohistochemistry analysis was used to assess the islet neogenic activities of peptides by measuring the number and area of extra islet insulin positive β cell clusters (EIC) of pancreatic tissues harvested from each individual group post 10 day treatment. EIC is indicative of islet neogenesis, as previously described by Lipsett and Finegood (Diabetes 51:1834-1841 (2002)).

For the substance “H-IGLHDPSHGTLPNGS-OH [Peptide 1, H-IGLHDPSHGTLPNGS-OH, reference compound]”, the “number of islets, islet size (Log [μm^2]) ranging from 2.1 to 0.7” value in the data set on normal C57BL/6J mice [1] (normal female C57BL/6J mice, 25 mg/kg per day, 10 days, versus naive/control group, FIG. 7) is reported as “only observed in islet size of 2.1”. Moreover, in the data set with normal C57BL/6J mice [1] (normal mice, 25 mg/kg per day sc for 10 days, compared to saline group), the “effect on body weight, blood glucose, plasma insulin, pancreas insulin, pancreas weight” value is “did not affect body weight, blood glucose, plasma insulin, pancreas insulin, or pancreas weight”. Besides, the “effect on body weight or pancreas weight” value in data set [2] was “did not affect body weight or pancreas weight”.
For the substance “Ac-IGLHDPSHGTLPNGS-NH2 [Peptide 31, Ac-IGLHDPSHGTLPNGS-NH2]”, the “islet neogenesis efficacy relative to INGAP-PP” value with normal C57BL/6J mice [3] (analog 5 mg/kg vs INGAP-PP 50 mg/kg, 10 days) is on record as “comparable or improved efficacy was achieved at a dose one tenth of INGAP-PP”. For the same substance, the “number of extra islet cluster (EIC)” value in the data set with normal C57BL/6J mice [3] (female C57BL/6J mice, 10 days sc, INGAP-PP 50 mg/kg, analogs 5 mg/kg per day, FIG. 9A) is on record as “statistically greater than that of INGAP-PP (Peptide 1) (50 mg/kg) treated group”. For the same substance, the “total area of EIC” value with normal C57BL/6J mice [3] (female C57BL/6J mice, 10 days sc, INGAP-PP 50 mg/kg, analogs 5 mg/kg per day, FIG. 9B) is “statistically greater than that of INGAP-PP (Peptide 1) (50 mg/kg) treated group”.
